Assay results reported in patent US5605929A, “Methods and compositions for inhibiting 5α-reductase activity” (priority 1995, dated 1997).
Several values for one entry are separate records, joined by “and”; a condition that tells them apart may be missing. Equal values may be shown once.

Legend:
[1] = NADPH oxidation in presence of microsomes
[2] = EGCG ip 7 days, male rats, body and organ weights; format: in vivo, rat; settings: based on the increase in the weight
Description: (§1) Male Sprague-Dawley rats (body weight 180 g±10 g) were used. Each group had 5 rats. […] Rats in the control group received 0.1 ml 30% ethanol.

[3] = test system: male accessory reproductive organs and preputial organs; assay: EGCG ip 7 days, male rats, body and organ weights; format: in vivo, rat
Description: as §1

type 1 5α-reductase = format: biochemical
Description: [^3 H]4-MA binding assay were described in detail previously (Liang and Liao, 1992; Liang et al., 1983). […] The reaction was started by the addition of 25 μl of microsomes (25 μg protein). After 30-60 min incubation at 0° C., the [^3 H]4-MA bound to microsomes was collected on a Whatman GF/F glass fiber, washed and radioactivity determined (Liang and Liao, 1992).
The reaction was started by the addition of 25 μl of microsomes (25 μg protein). The mixture was incubated at 37° for 30-60 min and stopped by addition of 0.5 ml of ethyl acetate and mixing for 1 min. The organic solvent extract was removed under vacuum.

[4] = target: T1, rat small intestinal sucrase (Rattus norvegicus, UniProt P23739); settings: cited from earlier work
T1 construct: rat small intestinal sucrase and maltase; host or cells: rat small intestine
T1 sequence (P23739 1014-1841 limits assumed): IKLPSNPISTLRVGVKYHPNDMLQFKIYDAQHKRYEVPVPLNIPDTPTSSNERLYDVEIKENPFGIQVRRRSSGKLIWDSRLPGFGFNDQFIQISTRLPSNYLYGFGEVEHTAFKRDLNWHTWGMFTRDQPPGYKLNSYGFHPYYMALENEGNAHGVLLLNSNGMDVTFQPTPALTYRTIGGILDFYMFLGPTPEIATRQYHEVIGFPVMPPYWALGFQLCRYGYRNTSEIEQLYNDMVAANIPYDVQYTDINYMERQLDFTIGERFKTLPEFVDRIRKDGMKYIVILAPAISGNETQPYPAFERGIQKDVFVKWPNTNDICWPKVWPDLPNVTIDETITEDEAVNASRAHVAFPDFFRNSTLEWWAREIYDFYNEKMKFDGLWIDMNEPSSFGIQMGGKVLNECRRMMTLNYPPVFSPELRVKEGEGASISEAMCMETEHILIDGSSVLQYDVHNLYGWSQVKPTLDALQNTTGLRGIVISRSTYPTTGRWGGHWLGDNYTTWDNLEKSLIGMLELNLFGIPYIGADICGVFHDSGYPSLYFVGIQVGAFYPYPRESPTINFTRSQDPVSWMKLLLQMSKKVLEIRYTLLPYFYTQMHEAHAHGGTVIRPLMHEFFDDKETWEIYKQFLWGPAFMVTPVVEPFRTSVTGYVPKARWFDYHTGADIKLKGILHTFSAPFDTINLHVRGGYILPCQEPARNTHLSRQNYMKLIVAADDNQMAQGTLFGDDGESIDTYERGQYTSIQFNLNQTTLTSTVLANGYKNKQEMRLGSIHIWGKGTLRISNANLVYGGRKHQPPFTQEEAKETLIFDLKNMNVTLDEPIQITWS
T1 sequence (P23739 2-1013 partner limits assumed): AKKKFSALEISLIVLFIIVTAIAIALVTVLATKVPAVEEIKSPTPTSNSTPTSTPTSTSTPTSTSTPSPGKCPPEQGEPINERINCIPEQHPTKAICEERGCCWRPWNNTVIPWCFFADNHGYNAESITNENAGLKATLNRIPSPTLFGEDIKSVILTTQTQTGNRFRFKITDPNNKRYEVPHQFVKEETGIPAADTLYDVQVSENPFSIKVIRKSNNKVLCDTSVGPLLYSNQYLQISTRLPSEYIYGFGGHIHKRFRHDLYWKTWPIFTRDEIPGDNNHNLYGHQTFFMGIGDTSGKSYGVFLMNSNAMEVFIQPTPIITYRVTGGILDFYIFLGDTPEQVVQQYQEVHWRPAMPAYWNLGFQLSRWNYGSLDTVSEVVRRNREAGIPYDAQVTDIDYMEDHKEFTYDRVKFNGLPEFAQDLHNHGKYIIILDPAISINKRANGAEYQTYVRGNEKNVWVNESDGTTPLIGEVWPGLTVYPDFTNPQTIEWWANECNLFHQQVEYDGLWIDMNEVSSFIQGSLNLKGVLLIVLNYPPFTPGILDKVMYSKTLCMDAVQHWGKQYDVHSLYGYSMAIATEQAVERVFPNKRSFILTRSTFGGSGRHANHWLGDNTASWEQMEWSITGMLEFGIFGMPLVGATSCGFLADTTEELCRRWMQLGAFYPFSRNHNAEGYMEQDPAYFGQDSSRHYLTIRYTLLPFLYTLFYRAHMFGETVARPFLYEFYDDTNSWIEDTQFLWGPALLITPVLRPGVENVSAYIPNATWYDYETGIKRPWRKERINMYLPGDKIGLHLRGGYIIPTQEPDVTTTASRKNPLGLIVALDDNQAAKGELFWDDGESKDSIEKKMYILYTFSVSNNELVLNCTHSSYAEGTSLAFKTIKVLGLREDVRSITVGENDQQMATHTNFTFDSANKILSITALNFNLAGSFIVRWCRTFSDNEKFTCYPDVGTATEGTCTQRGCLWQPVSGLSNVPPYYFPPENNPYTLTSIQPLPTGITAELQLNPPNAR

PC-3 = assay: 5α-DHT formation from [3H]testosterone by PC-3 cells; format: cell-based, human; settings: Homo sapiens, PC-3, read-out: 5α-DHT formed (% of control)
hamster flank organ = assay: Flank organ, castrated immature male hamsters, topical treatment; format: in vivo, Syrian golden hamster; settings: for change of pigmented macule vs T alone: Table 4, T + 1 mg fatty acid
Outline: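 Castrated immature male hamsters (5 per group) received 5 μl once daily on the right flank organ of ethanol vehicle, androgen (T or 5α-DHT), fatty acid, or androgen plus fatty acid. The left organ was left untreated. Pigmented macule and sebaceous gland growth were assessed with caliper long and short axes, as mean ± SD.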

[5] = test system: forehead sebum production; assay: Forehead sebum production (L/R ratio), human male; format: in vivo
Description: A volunteer was used to test and analyze sebum production from the forehead region. The forehead was washed thoroughly by soap twice and cleaned by 70% isopropyl alcohol twice. Sebum production was measured 30 to 60 minutes later by a sebum meter (Courage/Khazaka Electronic GmbH, Germany). The sebum meter tape probe (7 mm×8 mm) covered 56 mm^2 area in each measurement. Ten measurements were made within the 4 cm square area (16 cm^2) located at the middle of the left or right side forehead between the eyebrow and the hair line.
The sebum meter detected the difference in the transparency of the tape before and after the tape was placed on the forehead for 30 seconds and expressed the difference in an arbitrary number (S-value) between 0 to 300 (or higher). S-values of sebum accumulated on the foreheads of men are usually 200 to 300.

[6] = test system: Human Prostatic Cancer Cells; assay: Cell morphology during 2 hour incubation; format: cell-based
[7] = target: T2, 5α-Reductase of Rat Liver Microsomes (Rattus norvegicus, UniProt P24008)
T2 sequence (P24008 1-259): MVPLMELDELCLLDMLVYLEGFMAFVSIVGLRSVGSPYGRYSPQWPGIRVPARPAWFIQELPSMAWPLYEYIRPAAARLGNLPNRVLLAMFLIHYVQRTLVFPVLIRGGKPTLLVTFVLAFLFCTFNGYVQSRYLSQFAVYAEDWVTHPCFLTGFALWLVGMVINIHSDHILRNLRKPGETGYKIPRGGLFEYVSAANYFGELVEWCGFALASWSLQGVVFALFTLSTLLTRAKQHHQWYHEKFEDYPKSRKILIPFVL

[8] = ethanol solution
[9] = target: T2, 5α-Reductase of Rat Liver Microsomes; assay: biochemical; settings: for Ki: apparent Ki values for [^3 H]4-MA
[10] = based on the increase in the weight
[11] = read-out: % Inhibition of [^3 H]4-MA binding

Q: With `O=C(O[C@@H]1Cc2c(O)cc(O)cc2O[C@@H]1c1cc(O)c(O)c(O)c1)c1cc(O)c(O)c(O)c1` [EGCG, (-)Epigallocatechin-3-gallate] as the molecule, how does the NADPH oxidation [1] read?
A: The NADPH oxidation was “did not induce NADPH oxidation”.

Q: And the “Body weight, % of Control, Increase” value [2]?
A: The value was 20.3 % of Control.

Q: And the final body weight ([3]; 15 mg/day, 7 days, control 238.2 ± 10.6)?
A: The final body weight was 191.8 ± 12.0 g.

Q: What about the Coagulating gland ([3]; 15 mg/day, control 78.0 ± 5.9) of the same molecule?
A: Its Coagulating gland is 45.5 ± 11.7 mg.

Q: What about the Preputial gland ([3]; 15 mg/day, control 126.8 ± 24.8) of the same molecule?
A: The Preputial gland was 76.1 ± 33.1 mg.

Q: What about the Ventral prostate ([3]; 15 mg/day, control 201.9 ± 36.2) of the same molecule?
A: Its Ventral prostate is 142.2 ± 10.7 mg.

Q: And the “Seminal Vesicle” value ([3]; 15 mg/day, control 234.3 ± 11.7)?
A: The value was 164.9 ± 30.4 mg.

Q: What about the “Coagulating gland, % of Control, Final” value ([3]; based on the full weight) of the same molecule?
A: Its value is 58.3 % of Control.

Q: And the “Final body weight, % of Control, Final” value ([3]; based on the full weight)?
A: Its value is 80.5 % of Control.

Q: And the “Preputial gland, % of Control, Final” value ([3]; based on the full weight)?
A: The value was 60.0 % of Control.

Q: What about the “Seminal Vesicle, % of Control, Final” value ([3]; based on the full weight) of the same molecule?
A: The value was 70.4 % of Control.

Q: And the “Ventral prostate, % of Control, Final” value ([3]; based on the full weight)?
A: The value was 70.4 % of Control.

Q: And the “Coagulating gland, % of Control, Increase” value [3, 10]?
A: The value was 39.8 % of Control.

Q: And the “Seminal Vesicle, % of Control, Increase” value [3, 10]?
A: The value was 52.3 % of Control.

Q: And the “Ventral prostate, % of Control, Increase” value [3, 10]?
A: Its value is 62.0 % of Control.

Q: And the “competition with testosterone or NADPH” value (type 1 5α-reductase)?
A: The value was “did not appear to compete with testosterone or NADPH”.

Q: And the IC50 [4]?
A: Its IC50 is 50000 to 500000 nM.

Q: For `CCCCC/C=C\C/C=C\C/C=C\CCCCC(=O)O` [γ-Linolenic acid, γ-linolenic acid], which activity at 1 µM (PC-3; 1 μM) is on record?
A: Its activity at 1 µM is 98 ± 6%.

Q: And the activity at 5 µM (PC-3; 5 μM)?
A: The activity at 5 µM was 50 ± 3%.

Q: What about the activity at 20 µM (PC-3; 20 μM) of the same molecule?
A: The activity at 20 µM was 2 ± 2%.

Q: What about the “inhibition of 5α-DHT-induced growth of pigmented macule” value (hamster flank organ; 0.2 to 1 mg) of the same molecule?
A: Its value is “no statistically significant inhibition”.

Q: And the effective dosage (hamster flank organ; T-stimulated pigmented macule, per flank organ/day)?
A: Its effective dosage is at least 0.2 mg.

Q: What about the “Pigmented Macule, Untreated (L)” value (hamster flank organ; Table 4, 1 mg fatty acid alone, 18 days) of the same molecule?
A: Its value is 4.2 ± 0.6 mm^2.

Q: And the “Pigmented Macule, Untreated (L)” value (hamster flank organ; Table 4, T 0.5 μg + 1 mg fatty acid)?
A: The value was 4.1 ± 0.3 mm^2.

Q: What about the “change of pigmented macule vs T alone” value (hamster flank organ; listed as LA) of the same molecule?
A: The value was -53%.

Q: What about the “change of pigmented macule vs T alone” value (hamster flank organ; listed as γ-LA) of the same molecule?
A: The value was 53%.

Q: And the “Percent Inhibition” value (hamster flank organ; Table 5, T 0.5 μg + fatty acid 1 mg, 21 days)?
A: Its value is 66%.

Q: What about the “Pigmented macule Right (+T)” value (hamster flank organ; Table 5, T 0.5 μg + fatty acid 1 mg, 21 days, T alone 49.6 ± 8.3) of the same molecule?
A: The value was 17.0 ± 6.4 mm^2.

Q: And the “Pigmented macule Left” value (hamster flank organ; Table 5, fatty acid 1 mg without T, 21 days)?
A: The value was 4.4 ± 1.6 mm^2.

Q: And the “Pigment Macule change” value (hamster flank organ; Table 6, T + LA 0.2 mg)?
A: The value was -31%.

Q: And the “Sebaceous Gland change” value (hamster flank organ; Table 6, T + LA 0.2 mg)?
A: Its value is -30%.

Q: What about the “Pigment Macule change” value (hamster flank organ; Table 6, T + LA 0.4 mg) of the same molecule?
A: Its value is -24%.

Q: And the “Pigment Macule change” value (hamster flank organ; Table 6, T + LA 0.6 mg)?
A: Its value is -45%.

Q: What about the “Sebaceous Gland change” value (hamster flank organ; Table 6, T + LA 0.6 mg) of the same molecule?
A: Its value is -51%.

Q: What about the “Pigment Macule change” value (hamster flank organ; Table 6, T + LA 0.8 mg) of the same molecule?
A: The value was -32%.

Q: And the “Sebaceous Gland change” value (hamster flank organ; Table 6, T + LA 0.8 mg)?
A: The value was -25%.

Q: And the “Pigment Macule change” value (hamster flank organ; Table 6, T + LA 1.0 mg)?
A: Its value is -34%.

Q: And the “Sebaceous Gland change” value (hamster flank organ; Table 6, T + LA 1.0 mg)?
A: The value was -55%.

Q: And the maximum inhibition (hamster flank organ; daily dose of 1 to 2 mg γ-LA)?
A: The maximum inhibition was 50 to 66%.

Q: What about the “effect on sebaceous gland growth stimulated by 5α-DHT” value (hamster flank organ; hamster, in vivo) of the same molecule?
A: Its value is “did not significantly affect”.

Q: And the maximal inhibition (hamster flank organ; reached by 1 mg, T-stimulated pigmented macule)?
A: The maximal inhibition was 50%.

Q: And the “L/R sebum ratio at end of treatment” value ([5]; 20 mg twice a day, 6 days)?
A: The value was 0.22.

Q: And the “L/R sebum ratio recovered after treatment stopped” value ([5]; 16 days after stop)?
A: Its value is 1.20±0.14.

Q: What about the “visible change in cell morphology” value [6] of the same molecule?
A: The value was “did not produce any visible”.

Q: What about the “extent of inhibition by 10 μM γ-LA” value [7] of the same molecule?
A: The value was 93% and 52% and 88%.

Q: And the “inhibition before removal of free γ-LA” value [7]?
A: Its value is 78%.

Q: What about the “maximal binding of [^3 H]4-MA” value [7] of the same molecule?
A: Its value is 0.45 pmol/10 μg protein and 0.40 pmol/10 μg protein.

Q: What about the onset of inhibition [7] of the same molecule?
A: The onset of inhibition was “within a minute”.

Q: And the “inhibition after microsomes reisolated to remove free γ-LA” value ([7]; reversibility test)?
A: Its value is 63%.

Q: And the “oxidation products by TLC” value ([8]; 5 weeks of storage)?
A: Its value is “two additional more polar products”.

Q: What about the “changes of the compound by TLC” value ([8]; refrigerated for 3 weeks) of the same molecule?
A: The value was “no detectable changes”.

Q: And the Ki ([9]; γ-LA 5 μM)?
A: The Ki was 20 nM.

Q: And the Ki ([9]; γ-LA 10 μM)?
A: The Ki was 40 nM.

Q: And the inhibition at 5 µM [9, 11]?
A: The inhibition at 5 µM was 30%.

Q: What about the inhibition at 10 µM [9, 11] of the same molecule?
A: The inhibition at 10 µM was 50 ± 2%.

Q: What about the inhibition at 40 µM [9, 11] of the same molecule?
A: Its inhibition at 40 µM is 83 ± 12%.

Q: And the inhibition at 200 µM [9, 11]?
A: The inhibition at 200 µM was 96 ± 2%.
